Assay results reported in PMC10214512 (2023).

Legend:
[1] = test system: Cy5 NRAS 5'UTR G4 (RNA, G4) UGUGGGAGGGGCGGGUCUGGGUGC; assay: fluorescence quenching (Cy5); details: 100 mM KCl, 10 mM MgCl2
[2] = test system: Cy5 NRAS 5'UTR G4 (RNA, G4) UGUGGGAGGGGCGGGUCUGGGUGC; assay: MST thermophoresis; details: 100 mM KCl, 10 mM MgCl2; binding only at millimolar concentrations, KD not established; label of G4 construct not stated for this assay
[3] = 20 mM HEPES pH 7.4, 25 °C, group value close to 200 nM

SMILES	KD [1, 3] [µM]	also measured
NCCOc1cc(NC(=O)c2cc(OCc3cn(CCOCCOCCOCCn4ccnc4)nn3)cc(C(=O)Nc3cc(OCCN)c4ccccc4n3)n2)nc2ccccc12	0.211	–
NCCOc1cc(NC(=O)c2cc(OCc3cn(CCOCCOCCOCCOCCOCCn4ccnc4)nn3)cc(C(=O)Nc3cc(OCCN)c4ccccc4n3)n2)nc2ccccc12	0.137	–
NCCOc1cc(C(=O)Nc2cc(OCCN)c3ccccc3n2)nc(C(=O)Nc2cc(OCCN)c3ccccc3n2)c1	–	KD ([1]; 20 mM HEPES pH 7.4, 25 °C read after 30 min at 4 °C, 50 nM RNA): 0.026 µM
[N-]=[N+]=NCCOCCOCCOCCOCCOCCn1ccnc1	–	binding [2]: weak
NCCOc1cc(NC(=O)c2cc(OCc3cn(CCC(=O)O)nn3)cc(C(=O)Nc3cc(OCCN)c4ccccc4n3)n2)nc2ccccc12	0.191	–
